Data as given in patent publication US10029017B2, “Pretargeted activatable cell penetrating peptide with intracellularly releasable prodrug” (The Regents of the University of California, priority 2013, dated 2018).
Non-standard residues stand in square brackets, D forms with d. Residues, ends and D or L forms follow the SMILES beside them. *: point of attachment. Dolaproine = CO[C@@H]([C@@H]1CCCN1)[C@@H](C)C(=O)O; Dil = CC[C@H](C)[C@H](NC)[C@@H](CC(=O)O)OC; X1 = C[C@@H](N*)[C@@H](O)c1ccccc1; NMeV = CN[C@H](C(=O)O)C(C)C

Tested on: MDA-MB-231 orthotopic xenografts
Assay: chemotherapy of MDA-MB-231 orthotopic xenografts: tumor volume, regression, survival
Assay type: in vivo, mice
Conditions: 0.32 mg/kg equivalents of MMAE, equimolar free MMAE
Description: A) Tumor growth curve obtained from MDA-MB-231 bilateral tumor bearing mice that were either intravenously injected with 6.5 nanomoles of MMAE (red line), cRAD-PEG6-MMAE (green line), cRGD-MMP-MMAE (dark blue) or no injection (no treatment, light blue).
Monomethyl auristatin E (MMAE), a potent chemotherapeutic inhibitor of tubulin polymerization, was conjugated to an ACPP via a peptide linker, Val-Cit-(p-amido)benzyloxycarbonyl, which is cleavable by cathepsin B, an endolysosomal protease. Mice harboring MDA-MB-231 orthotopic xenografts were dosed with cRGD-ACPP-MMAE at 0.2 mg/kg equivalents MMAE (6.5 nanomoles peptide) every three days for a total of four doses and tumor volumes were measured at regular intervals. […] When the dose was increased to 0.32 mg/kg equivalents of MMAE, the dual targeted peptide caused 4 out of 8 tumors to regress completely, compared to 2 out of 8 for equimolar free MMAE. The ACPPs caused no weight loss or gross toxicity. […] Animal weights are illustrated in FIGS. 7, 9, and 11.

Question: Which “tumors that regressed completely” value does the source give for `CC[C@H](C)[C@@H]([C@@H](CC(=O)N1CCC[C@H]1[C@H](OC)[C@@H](C)C(=O)N[C@H](C)[C@@H](O)c1ccccc1)OC)N(C)C(=O)[C@@H](NC(=O)[C@@H](NC)C(C)C)C(C)C` [MMAE, Monomethyl auristatin E] (H-[NMeV]V[Dil][Dolaproine]-X1) here?
Answer: Its value is 2 out of 8.
